Test system: human breast-cancer-derived cell line T47D
Assay: Survival rate by ATP assay (CellTiter-Glo) and number of spheroids on NanoCulture plate
Format: cell-based
Conditions: trastuzumab 10 μg/mL, paclitaxel 6.0 μg/mL, 7 days after medicine was added, expected effects confirmed in b72 (FIG. 8, FIG. 9)
Description: A human breast-cancer-derived cell line T47D was suspended in a culture medium (NCM-M made by SCIVAX Co., Ltd.), and seeded on a NanoCulture (registered mark) plate (made by SCIVAX Co., Ltd., 96-well plate, material of concavo-convex structure surface: cyclic-olefin polymer (COP), planar shape of concavo-convex structure: regular hexagon, width between unit structures (line width): 700 nm, minimum internal diameter of unit structure: 3 μm, and depth: 1 μm) at 1×10^4 cells/well, and incubated at 37° C. and 5% CO2.
The survival rate of the cell on the tenth day (the seventh day after medicines were added) was evaluated based on the assay of the ATP in the cell using CellTiter-Glo Luminescent Cell Viability Assay (Promega KK.) and calculated as a relative value, and the results are shown in FIG. 8.

For `CC(=O)O[C@H]1C(=O)[C@@]2(C)[C@H]([C@H](OC(=O)c3ccccc3)[C@]3(O)C[C@H](OC(=O)[C@H](O)[C@@H](NC(=O)c4ccccc4)c4ccccc4)C(C)=C1C3(C)C)[C@]1(OC(C)=O)CO[C@@H]1C[C@@H]2O` [paclitaxel], the “antitumor effect (ATP amount in the cell and number of spheroids)” value was “shows an antitumor effect”.
